Tested on: 454973-116-R2-J3-PDC spheroids, viability, % test/control
Assay: Anticancer human tumor 454973-116-R2-J3-PDC patient-derived pancreatic carcinoma cell line growth inhibition [GQUAD]
Conditions: spheroids with HUVEC and MSC; for IC50: curve of first compound; for viability, T/C: stronger effect = lower value
Procedure, shortened: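 Tumor cells were grown as complex spheroids with HUVEC endothelial cells and mesenchymal stem cells as stroma. G-quadruplex stabilizers were combined with targeted agents over half-log dilutions from near the clinical Cmax, or from 10 microM.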

[1] = second compound 0.0316 µM, first compound 0.0316 µM
[2] = second compound 0.0316 µM, first compound 0.1 µM
[3] = second compound 0.0316 µM, first compound 0.316 µM
[4] = second compound 0.0316 µM, first compound 1 µM
[5] = second compound 0.0316 µM, first compound 3.16 µM
[6] = second compound 0.0316 µM, first compound 10 µM
[7] = second compound 0.1 µM, first compound 0.0316 µM
[8] = second compound 0.1 µM, first compound 0.1 µM
[9] = second compound 0.1 µM, first compound 0.316 µM
[10] = second compound 0.1 µM, first compound 1 µM
[11] = second compound 0.1 µM, first compound 3.16 µM
[12] = second compound 0.1 µM, first compound 10 µM
[13] = second compound 0.316 µM, first compound 0.0316 µM
[14] = second compound 0.316 µM, first compound 0.1 µM
[15] = second compound 0.316 µM, first compound 0.316 µM
[16] = second compound 0.316 µM, first compound 1 µM
[17] = second compound 0.316 µM, first compound 3.16 µM
[18] = second compound 0.316 µM, first compound 10 µM
[19] = second compound 1 µM, first compound 0.0316 µM
[20] = second compound 1 µM, first compound 0.1 µM
[21] = second compound 1 µM, first compound 0.316 µM
[22] = second compound 1 µM, first compound 1 µM
[23] = second compound 1 µM, first compound 3.16 µM
[24] = second compound 1 µM, first compound 10 µM
[25] = second compound 3.16 µM, first compound 0.0316 µM
[26] = second compound 3.16 µM, first compound 0.1 µM
[27] = second compound 3.16 µM, first compound 0.316 µM
[28] = second compound 3.16 µM, first compound 1 µM
[29] = second compound 3.16 µM, first compound 3.16 µM
[30] = second compound 3.16 µM, first compound 10 µM
[31] = second compound 10 µM, first compound 0.0316 µM
[32] = second compound 10 µM, first compound 0.1 µM
[33] = second compound 10 µM, first compound 0.316 µM
[34] = second compound 10 µM, first compound 1 µM
[35] = second compound 10 µM, first compound 3.16 µM
[36] = second compound 10 µM, first compound 10 µM
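Further: spheroids exposed to compounds for seven days.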
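Wherever viability, T/C is given: 100% = DMSO vehicle control viability.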

Cc1cccc(N(C)C(=O)C2C(O)CCN2c2nc(C)cc(C(F)(F)F)c2C#N)c1 (centres undefined) + Cc1cnc(CNC(=O)c2c(=O)c3ccc(N4CCCN(C)CC4)nc3n3c2sc2ccccc23)cn1
IC50 (second compound 0.0316 µM): > 10000 nM
IC50 (second compound 0.1 µM): > 10000 nM
IC50 (second compound 0.316 µM): > 10000 nM
IC50 (second compound 1 µM): > 10000 nM
IC50 (second compound 3.16 µM): > 10000 nM
IC50 (second compound 10 µM): < 31.6 nM
viability, T/C [1]: 103%
viability, T/C [2]: 96.8%
viability, T/C [3]: 107%
viability, T/C [4]: 87.5%
viability, T/C [5]: 108%
viability, T/C [6]: 93.4%
viability, T/C [7]: 88.2%
viability, T/C [8]: 74.3%
viability, T/C [9]: 71.9%
viability, T/C [10]: 68.7%
viability, T/C [11]: 70.2%
viability, T/C [12]: 69.9%
viability, T/C [13]: 74.5%
viability, T/C [14]: 71.5%
viability, T/C [15]: 71.3%
viability, T/C [16]: 67.6%
viability, T/C [17]: 70.8%
viability, T/C [18]: 66.1%
viability, T/C [19]: 71.9%
viability, T/C [20]: 65.5%
viability, T/C [21]: 61.2%
viability, T/C [22]: 65.2%
viability, T/C [23]: 65%
viability, T/C [24]: 70%
viability, T/C [25]: 64.2%
viability, T/C [26]: 59.4%
viability, T/C [27]: 62.1%
viability, T/C [28]: 65.3%
viability, T/C [29]: 58.2%
viability, T/C [30]: 68.4%
viability, T/C [31]: 0.75%
viability, T/C [32]: 16.9%
viability, T/C [33]: 51.1%
viability, T/C [34]: 34.8%
viability, T/C [35]: 0.59%
viability, T/C [36]: 0.31%

Nc1ccn(C2OC(CO)C(O)C2(F)F)c(=O)n1 (centres undefined) + Cc1cnc(CNC(=O)c2c(=O)c3ccc(N4CCCN(C)CC4)nc3n3c2sc2ccccc23)cn1
IC50 (second compound 0.0316 µM): < 31.6 nM
IC50 (second compound 0.1 µM): < 31.6 nM
IC50 (second compound 0.316 µM): < 31.6 nM
IC50 (second compound 1 µM): < 31.6 nM
IC50 (second compound 3.16 µM): < 31.6 nM
IC50 (second compound 10 µM): < 31.6 nM
viability, T/C [1]: 18.9%
viability, T/C [2]: 15.8%
viability, T/C [3]: 17.5%
viability, T/C [4]: 16.6%
viability, T/C [5]: 14.2%
viability, T/C [6]: 14.4%
viability, T/C [7]: 22.7%
viability, T/C [8]: 16.1%
viability, T/C [9]: 15.6%
viability, T/C [10]: 21.5%
viability, T/C [11]: 17.8%
viability, T/C [12]: 13.8%
viability, T/C [13]: 30.5%
viability, T/C [14]: 19.5%
viability, T/C [15]: 18.4%
viability, T/C [16]: 16.1%
viability, T/C [17]: 20.2%
viability, T/C [18]: 23.2%
viability, T/C [19]: 43.7%
viability, T/C [20]: 24.6%
viability, T/C [21]: 24%
viability, T/C [22]: 24.2%
viability, T/C [23]: 22.9%
viability, T/C [24]: 21.8%
viability, T/C [25]: 45.5%
viability, T/C [26]: 29.6%
viability, T/C [27]: 30.5%
viability, T/C [28]: 24.8%
viability, T/C [29]: 32.8%
viability, T/C [30]: 28.5%
viability, T/C [31]: 0.17%
viability, T/C [32]: 9.59%
viability, T/C [33]: 26.2%
viability, T/C [34]: 7.48%
viability, T/C [35]: 0.89%
viability, T/C [36]: 0.22%
